What all share (assay type): cell-based, human
In one assay the test system is HeLa cells. Kind of assay: Flow cytometric analysis of cell cycle. The method, then: The distribution of cells in different cell cycle phases (subG1, G1, S and G2/M) was analyzed via the measurement of cellular DNA content by flow cytometry. HeLa cells were seeded onto 6-well plates and allowed to stand for an overnight. The cells were treated with the selected compounds for 24, 48, or 72 h. Then cells were harvested, washed and fixed in ice cold 70% ethanol and stored at −20°C at least for an hour. Next, a DNA staining solution (containing distilled water, propidium-iodide, Triton-X100, sodium citrate, and ribonuclease-A) was added to each sample and stored in the dark at room temperature for an hour. Stained cells were analyzed by flow cytometry (Partec CyFlow, Partec GmbH, Munster, Germany) with at least 20,000 cells being evaluated for each analysis. Data processing was performed using the ModFit LT 3.3.11 software (Verity Software House, Topsham, ME, United States).
(Flow cytometry measures light scatter and fluorescence of single cells or particles in a stream.)

The next assay concerns MCF-7. The assay is described as follows: MTT antiproliferative assay, MCF-7. Conditions: Homo sapiens, MCF7, 72 h, read-out: Growth inhibition (%) ± SEM; for inhibition at 10 µM: MCF-7, 10 μM; for inhibition at 30 µM: MCF-7, 30 μM. The text has this:
(§1) Gynecological cancer cell lines, including ovarian (A2780), cervical (HeLa), and breast cancer cell lines (MCF7, T47D, MDA-MB-231, and MDA-MB-361) were purchased from the European Collection of Authenticated Cell Cultures (ECACC, Salisbury, United Kingdom). Additional cervical cell lines (SiHa and C33A) and a non-cancerous immortalized, mammary gland epithelial cell line (hTERT-HME1) were purchased from LGC Standards GmbH (Wesel, Germany). Non-cancerous fibroblast cells (MRC-5) were also obtained from the ECACC. All cells were cultured in minimal essential medium supplemented with 10% fetal bovine serum, 1% non-essential amino acids, and 1% antibiotic-antimycotic mixture, in humidified air containing 5% CO2 at 37°C. Immortalized hTERT-HME1 cells were maintained in serum-free mammary epithelial cell growth medium (MEGM) supplemented with insulin, human epidermal growth factor (hEGF), hydrocortisone, bovine pituitary extract, and an antibiotic-antimycotic mixture. All the medium and supplements were purchased from Lonza Group Ltd. (Basel, Switzerland).
(§2) The antiproliferative properties of the compounds were assessed by an MTT assay ([Mosmann, 1983]). Cells were seeded onto 96-well microplates at a density of 10,000 cells/well (MDA-MB-361 and C33A) or 5,000 cells/well (all other cell lines). After an overnight incubation, fresh medium containing the test compounds (at a concentration of 10 or 30 μM) was added. After incubation for 72 h at 37°C in humidified air, [3-(4,5-dimethylthiazol-2-yl)-2,5-diphenyltetrazolium bromide] (MTT) solution (5 mg/mL) was added. Purple formazan crystals were formed by the living cells during a 4 h contact period, which were assayed by spectrophotometry after having been dissolved in 100 μL DMSO. Untreated cells served as control, and cisplatin (CIS) (Ebewe Pharma GmbH, Unterach, Austria) was used as a reference compound. […] Two independent measurements were performed with five parallel wells. To present preliminary data concerning tumor selectivity of the potent compounds, the procedure was repeated on MRC-5 fibroblast and hTERT-HME1 immortalized mammary gland epithelial cells under the same experimental conditions.
A general note: Tetrazolium assays rely on reduction of a dye to a coloured formazan, in cell work by metabolically active cells.

The next assay deals with caspase-9. The assay is described as follows: Caspase-9 activity colorimetric assay. Conditions: HeLa. The method, then: (§3) In order to detect, whether the test compounds induce programmed cell death, the activity of caspase-3 was determined by a colorimetric assay. To elucidate the exact pathway of apoptosis, activities of caspase-8 and caspase-9 were additionally determined by colorimetric kits. In all cases approximately 12 million cells were treated with appropriate concentrations of the compounds for 24 or 72 h. After the treatment, the cells were scraped and the enzyme activities were determined by means of colorimetric assays mentioned above. All kits were purchased from Abnova Corp. (Taipei, Taiwan) and used in accordance with the instructions of the manufacturer.

A further assay relates to caspase-8. The assay is described as follows: Caspase-8 activity colorimetric assay. Conditions: HeLa. The method, then:
as §3

The test system of a further assay is caspase-3. The assay is described as follows: Caspase-3 activity colorimetric assay. The note with it: HeLa. The method, then: as §3
A further assay relates to HeLa. The assay is described as follows: MTT antiproliferative assay, HeLa. Conditions: Homo sapiens, 72 h; for inhibition at 10 µM / inhibition at 30 µM: read-out: Growth inhibition (%) ± SEM; for IC50: read-out: calculated IC50 value.
Excerpt: as §1, §2

Consider two compounds from publication PMC6072853 (Frontiers in Pharmacology, 2018).

Some results are limits rather than exact numbers.

Broadly, the inhibition is how much of the control response was suppressed. One may read the IC50 as the concentration that inhibits the measured activity by half. As for `C[C@]12CC[C@H]3[C@@H](CCC4=CC(=O)CC[C@@H]43)[C@@H]1CC[C@@H]2O` [Compound 1, 19-nortestosterone, reference compound], the “effect on cell cycle phase distribution” value with HeLa cells (24 h) is “significant decrease in the G1 and a moderate but significant increase in the G2/M phase cell population”; in the assay with HeLa cells (48 h), “these changes became more pronounced”; in the assay on HeLa cells (72 h) it was “concentration-dependent accumulation of hypodiploid cells”. In addition, the inhibition at 10 µM was under 20% with MCF-7 and 99.5 ± 0.2% with HeLa. In addition, the inhibition at 30 µM in the assay on MCF-7 is under 20%; in the assay with HeLa, 99.5 ± 0.3%. Moreover, the caspase-9 activity entry in the assay on caspase-9 (72 h) is listed as “activated the initiator caspases”. Further, the caspase-8 activity result with caspase-8 (72 h) is on record as “less pronounced”. For the same compound, in the assay with caspase-3 (72 h), the caspase-3 activity entry was “increased significantly”. In the assay on HeLa, the IC50 is 0.65 µM.
Regarding `C[C@]12CC[C@H]3[C@@H](CCC4=CC(=O)CC[C@@H]43)[C@@H]1CC[C@H]2Cl` [Compound 3], the “effect on cell cycle phase distribution” value was “did not have any remarkable effect on cell cycle” in the assay on HeLa cells (24 h) and “substantially elevated increase of the subG1 population at the expense of G1 cells” with HeLa cells (48 h). The inhibition at 10 µM in the assay on MCF-7 was under 20%; in the assay with HeLa it was 95.9 ± 0.3%. Besides, the inhibition at 30 µM in the assay on MCF-7 is 36.9 ± 2%; in the assay on HeLa, 95.1 ± 0.5%. The caspase-9 activity entry in the assay with caspase-9 (24 h) is “significantly elevated”. Besides, in the assay with caspase-8 (24 h), the caspase-8 activity result was “no change”. In the assay on caspase-3 (24 h, 5.0 μM), the caspase-3 activity entry is on record as “enhanced caspase-3 activity”. Further, in the assay on HeLa, the IC50 was 1.21 µM.
